Results published in patent US20160136130A1, “Oral Ultraviolet Resistance Enhancer” (KAO CORPORATION, priority 2013, published 2016).

What was measured:
IGF-1 = conditions: applied to the skin; cited from earlier work
HR-1 hairless mice = test: Ultraviolet-induced erythema (a* value) and epidermal thickness after oral GDL mixed feed; assay type: in vivo, mouse; conditions: UVB 40 mJ/cm^2
Procedure: HR-1 hairless mice (female, 8 weeks of age) (Japan SLC, Inc.) were bred in conditions of a temperature of 23±1° C., a humidity of 50±1%, and a lighting time of 7:00 to 19:00, and the mice freely ingested feed and water during the test period. […] After the two-week ingestion term, two sites (an irradiation site and a non-irradiation site) of 1.5 cm×1.0 cm were set in contiguity with each other on the back of the mouse under pentobarbital anesthesia, and irradiation was applied to the irradiation site in a UVB exposure dose of 1 mW/cm^2 for 40 seconds (40 mJ/cm^2). A degree of erythema was evaluated after 2 days from the irradiation by a skin color (a*value) measurement using a spectrophotometer SE-6000 (Nippon Denshoku Industries Co., Ltd.). The a*value is an index showing redness of the skin color, and it can be said that the skin turns more red, namely, the more erythema are generated, as the a* value is increased.
After the measurement, blood was drawn from a heart under deep anesthesia, and the skin was taken from the UVB non-irradiation site and the irradiation site. […] As for an epidermal thickness, an average value of epidermal thicknesses at 15 arbitrary points per tissue was defined as the epidermal thickness of the tissue.

[1] = test system: IL-1β, IL-6, GM-CSF, TNFα, COX-2, TLR3, SOCS3; test: qRT-PCR of UVB-induced inflammation-related gene expression in skin; assay type: in vivo, mouse; conditions: 1.0% GDL feed 2 weeks; UVB 40 mJ/cm^2; 24 hours after irradiation; corrected by Rplp0
Procedure: (§1) HR-1 hairless mice (female, 8 weeks of age) (Japan SLC, Inc.) were bred in conditions of a temperature of 23±1° C., a humidity of 50±1%, and a lighting time of 7:00 to 19:00, and the mice freely ingested feed and water during the test period. […] After the two-week ingestion term, two sites (an irradiation site and a non-irradiation site) of 1.5 cm×1.0 cm were set in contiguity with each other on the back of the mouse under pentobarbital anesthesia, and irradiation was applied to the irradiation site in a UVB exposure dose of 1 mW/cm^2 for 40 seconds (40 mJ/cm^2). After 24 hours from the irradiation, blood was drawn from a heart, and the skin was taken from the UVB non-irradiation site and the irradiation site, from which RNA was extracted. A gene expression level of the molecule, shown below, was quantified from the extracted RNA according to qRT-PCR. As a TaqMan Gene Expression Assay (Applied Biosystems) probe, which specifically detects a target gene, were used Il-1b (Mm01336189_m1; IL-1b, Il-6 (Mm00446190_m1; IL-6), Gm-csf (Mm01290062_m1; GM-CSF), Tnf (Mm00443258_m1; TNFa), Ptgs2 (Mm01307329_m1; COX-2), Tlr3 (Mm01207404_m1; TLR3), Socs3 (Mm00545913_s1; SOCS3), Vcam1 (Mm01320970_m1; VCAM-1), Icam1 (Mm00516023_m1; ICAM-1), Sele (Mm00441278_m1; E-selectin), Edn1 (Mm00438656_m1; EDN1), Kit1 (Mm00442972_m1; SCF), C-kit (Mm00445212_m1; c-Kit), Lif (Mm00434761_m1; LIF), Fgf2 (Mm00433287_m1; FGF2), Hgf (Mm01135185_m1; HGF), Pcna (Mm00448100_g1; PCNA), Ccnd1 (Mm00432359_m1; CyclinD1), Mmp13 (Mm00439491_m1; MMP13), Mmp2 (Mm00439506_m1; MMP2), Mmp9 (Mm00442991_m1; MMP9), and Mmp14(Mm00485054_m1; MMP14). A target gene expression level was corrected by an expression level of an internal standard gene Rplp0 (Mm01974474_gH; RPLP0). An analysis was performed using 7500 Fast Real-Time PCR System (Applied Biosystems). The obtained values are expressed as Ave.±S.D., n=10, and as for a statistical significance test between many groups, a multiple comparison test according to Dunnett was performed (*p<0.05, **p<0.01 (vs Cont UVB+). • IL-1β: Interleukin-1β • IL-6: Interleukin-6 • GM-CSF: Granulocyte macrophage colony-stimulating factor • TNFα: Tumor necrosis factor α • COX-2: Cyclooxygenase-2 • TLR3: Toll-like receptor 3 • SOCS3: Suppressor of cytokine signaling 3 • VCAM-1: Vascular cell adhesion molecule-1 • ICAM-1: Intercellular adhesion molecule-1 • E-selectin • EDN1: Endothelin 1 • SCF: Stem cell factor (kit-ligand) • c-Kit • LIF: Leukemia inhibitory factor • FGF2: Fibroblast growth factor 2 (basic) • HGF: Hepatocyte growth factor • PCNA: Proliferating cell nuclear antigen • CyclinD1 • MMP13: Matrix metallopeptidase 13 (Collagenase 3) • MMP2: Matrix metallopeptidase 2 (Gelatinase A) • MMP9: Matrix metallopeptidase 9 (Gelatinase B) • MMP14: Matrix metallopeptidase 14 (membrane-inserted)

[2] = test system: VCAM-1, ICAM-1, E-selectin; test: qRT-PCR of UVB-induced adhesion molecule expression in skin; assay type: in vivo, mouse; conditions: 1.0% GDL feed 2 weeks; UVB 40 mJ/cm^2; 24 hours after irradiation
Procedure: (§2) HR-1 hairless mice (female, 8 weeks of age) (Japan SLC, Inc.) were bred in conditions of a temperature of 23±1° C., a humidity of 50±1%, and a lighting time of 7:00 to 19:00, and the mice freely ingested feed and water during the test period. […] After the two-week ingestion term, two sites (an irradiation site and a non-irradiation site) of 1.5 cm×1.0 cm were set in contiguity with each other on the back of the mouse under pentobarbital anesthesia, and irradiation was applied to the irradiation site in a UVB exposure dose of 1 mW/cm^2 for 40 seconds (40 mJ/cm^2). After 24 hours from the irradiation, blood was drawn from a heart, and the skin was taken from the UVB non-irradiation site and the irradiation site, from which RNA was extracted. A gene expression level of the molecule, shown below, was quantified from the extracted RNA according to qRT-PCR. […]

[3] = test system: EDN1, c-Kit, LIF, FGF2, HGF; test: qRT-PCR of UVB-induced melanin synthesis-related molecule expression in skin; assay type: in vivo, mouse; conditions: 1.0% GDL feed 2 weeks; UVB 40 mJ/cm^2; 24 hours after irradiation
Procedure: as §1

PCNA, CyclinD1 = test: qRT-PCR of UVB-induced proliferation-related molecule expression in skin; assay type: in vivo, mouse; conditions: 1.0% GDL feed 2 weeks; UVB 40 mJ/cm^2; 24 hours after irradiation
Procedure: as §2

MMP13, MMP2, MMP9, MMP14 = test: qRT-PCR of UVB-induced dermal denaturation-related molecule expression in skin; assay type: in vivo, mouse; conditions: 1.0% GDL feed 2 weeks; UVB 40 mJ/cm^2; 24 hours after irradiation
Procedure: as §1, with “An analysis was performed using 7500 Fast Real-Time PCR System (Applied Biosystems).” left out

HRM-2 hairless mice = test: Long-term repeated UVB irradiation (20 weeks): pigmentation, stratum corneum function, skin elasticity; assay type: in vivo, mouse; conditions: 2.0% GDL feed
Excerpt: After a test feed was previously ingested for 3 weeks, UVB irradiation was applied to the UVB irradiation groups once per day over 20 weeks. As an ultraviolet resistance was obtained by continuous irradiation, a UVB irradiation intensity was increased from 40 mJ/cm^2 to 130 mJ/cm^2 in stages (irradiation in 0 to the first week: 40 mJ/cm^2, irradiation in the second to the forth weeks: 54 mJ/cm^2, irradiation in the fifth to the seventh weeks: 72 mJ/cm^2, irradiation in the eighth to the twelfth weeks: 108 mJ/cm^2, irradiation in the thirteenth to the fourteenth weeks: 120 mJ/cm^2, irradiation in the fifteenth to twentieth weeks: 130 mJ/cm^2). During the UVB irradiation term, the test feed was ingested. At the time of the grouping, and the irradiation 0th, 4th, 8th, 12th, 16th, and 20th weeks, the measurements of L*values using a spectrophotometer, TEWL values using a Tewameter, and stratum corneum moisture contents (the Capacitance value) using a Corneometer were performed. At the irradiation 20th week, skin physical parameters were measured using a Cutometer. The obtained values are expressed as Ave.±S.D., n=10-11, and the multiple comparison test was performed according to Tukey-Kramer.

healthy males = test: Human crossover test, capsule including glucono-δ-lactone: MED, erythema, pigmentation after UVB; assay type: in vivo; conditions: 2000 mg glucono-δ-lactone per day orally
Procedure: A 4-week ingestion interval was provided between the first half and the last half of the crossover test. Glucono-δ-lactone, which is a test product, is a food additive (Fuso Chemical Co., Ltd.), and the intake was divided into twice a day for ingestion. After a 3-week ingestion term, irradiation was applied to an upper arm inside part with a UVB intensity of 1 mW/cm^2 for 7 different time periods, each at different sites (an irradiation area of 0.6 cm×1.0 cm per site). After 24 hours from the UVB irradiation, an MED value (the minimum erythema dose) was visually evaluated.
After the 3-week ingestion term, irradiationwith a radiation dose corresponding to 2 MED was applied to an area of 1.5 cm×1.5 cm on the upper arm inside part with a UVB intensity of 1 mW/cm^2. After 24 hours from the UVB irradiation, a ΔAa*value (erythema intensity: a difference from that in the non-irradiation site) was measured using a spectrophotometer. Further, after one week from the UVB irradiation, a ΔL*value (degree of pigmentation: a difference from that in the non-irradiation site) in each irradiation site wasmeasuredusing the spectrophotometer. The obtained values are expressed as Ave.±S.D., n=10, and as for a statistical significance test between the two groups, a paired t-test was performed (*p<0.05, **p<0.01).

[4] = UVB once per day, 40 to 130 mJ/cm^2, after the UV irradiation 8th week or 12th week

In the case of `O=C(O)[C@H](O)[C@@H](O)[C@H](O)[C@H](O)CO` [gluconic acid], the IGF-1 secretion (IGF-1) is given as “promoted”.

For `O=C1O[C@H](CO)[C@@H](O)[C@H](O)[C@H]1O` [GDL, Glucono-δ-lactone], the “increase of a*values due to the UVB irradiation (erythema)” value (HR-1 hairless mice; 0.5% and 1% GDL mixed feed for 2 weeks, 2 days after irradiation) was “concentration-dependently suppressed”, the “a* value in the irradiation sites compared to the irradiation sites in the control group” value (HR-1 hairless mice; 1% GDL group, feed for 2 weeks, 2 days after irradiation) was “significant suppression” and the “increase of epidermal thickness in the irradiation sites compared to control group” value (HR-1 hairless mice; GDL groups (0.5%, 1%), feed for 2 weeks, HE stain) was “significantly suppressed”. The “COX-2 gene expression in irradiation sites vs control” value [1] was “significantly suppressed”, the “GM-CSF gene expression in irradiation sites vs control” value [1] was “significantly suppressed” and the “IL-1β gene expression in irradiation sites vs control” value [1] was “significantly suppressed”. For the same compound, the “IL-6 gene expression in irradiation sites vs control” value [1] was “significantly suppressed”, the “SOCS3 gene expression in irradiation sites vs control” value [1] was “significantly suppressed” and the “TLR3 gene expression in irradiation sites vs control” value [1] was “significantly suppressed”. The “TNFα gene expression in irradiation sites vs control” value [1] was “significantly suppressed”, the ICAM-1 expression [2] was “suppressed” and the VCAM-1 expression [2] was “suppressed”. The EDN1 expression [3] was “significantly reduced”, the FGF2 expression [3] was “significantly reduced” and the HGF expression [3] was “significantly reduced”. The LIF expression [3] was “significantly reduced”, the c-Kit expression [3] was “significantly reduced” and the CyclinD1 expression (PCNA, CyclinD1) was “suppressed”. For the same compound, the PCNA expression (PCNA, CyclinD1) was “suppressed”, the “collagenase (MMP13) expression” value (MMP13, MMP2, MMP9, MMP14) was “suppressed” and the “gelatinase MMP2 expression” value (MMP13, MMP2, MMP9, MMP14) was “suppressed”. For the same compound, the “gelatinase MMP9 expression” value (MMP13, MMP2, MMP9, MMP14) was “suppressed”, the “membrane-associated MMP (MMP14) expression” value (MMP13, MMP2, MMP9, MMP14) was “suppressed” and the “reduction of the skin viscoelasticity (Uv/Ue)” value (HRM-2 hairless mice; UVB once per day over 20 weeks, Cutometer at irradiation 20th week) was “suppressed”. The “decrease of L*value caused by the UVB irradiation (pigmentation)” value (HRM-2 hairless mice; [4]) was “suppressed”, the “decrease of stratum corneum moisture content (the Capacitance value) caused by the UVB irradiation” value (HRM-2 hairless mice; [4]) was “suppressed” and the “Δa*values (erythema intensity) compared to the placebo group” value (healthy males; 2 MED UVB, after 24 hours from the UVB irradiation) was “significantly decreased”. For the same compound, the “AL* values (degree of pigmentation) compared to the placebo group” value (healthy males; 2 MED UVB, after one week from the UVB irradiation) was “significantly decreased” and the “MED values (minimum erythema dose) compared to the placebo group” value (healthy males; after 3-week ingestion, 24 hours after UVB, upper arm inside) was “significantly high”.
